Biological target: T1, L-alanine dehydrogenase (A.D) (Bacillus subtilis, UniProt Q08352)
T1 sequence (Q08352 1-378): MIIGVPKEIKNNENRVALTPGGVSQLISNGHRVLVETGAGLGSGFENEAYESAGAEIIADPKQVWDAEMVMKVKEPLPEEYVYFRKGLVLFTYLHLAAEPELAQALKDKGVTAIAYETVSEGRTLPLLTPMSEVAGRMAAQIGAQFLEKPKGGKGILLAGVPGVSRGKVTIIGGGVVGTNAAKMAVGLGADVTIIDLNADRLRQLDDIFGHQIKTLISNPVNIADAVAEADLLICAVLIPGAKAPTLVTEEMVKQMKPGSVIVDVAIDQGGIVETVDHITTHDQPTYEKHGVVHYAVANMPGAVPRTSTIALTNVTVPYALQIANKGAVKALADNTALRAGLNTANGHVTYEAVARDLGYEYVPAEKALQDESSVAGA
Assay: Relative activity of substrate with L-alanine dehydrogenase
Format: biochemical
Conditions: relative to L-alanine (100%)
From the text: If L-alanine dehydrogenase (A.D) is used as the enzyme in a reaction system similar to that used for leucine dehydrogenase, a suitable substrate and its activity relative to L-alanine (100%) is […]

N[C@@H](CO)C(=O)O [L-serine]
Relative Activity: 5%
